According to paper PMC13128454, “Mutant p53 protein accumulation is selectively targetable by proximity-inducing drugs” (Nature Chemical Biology, 2025):
“And” between values parts separate entries of the source, which are not always exact repeats. Equal values may be shown once. Read-outs that look alike come from different tables or passages of the source.

Assays:
Assay type in all cases: cell-based
[1] = CellTiter-Glo cell viability; details: human, p53_construct Mut, CTG 4 days, read-out: mean (normalized viability)
[2] = test system: Calu-1 cells stably expressing Halo–p53-R273H (FL)–mCherry–2A–mTagBFP2-V5; test: CellTiter-Glo cell viability; details: CTG 4 days; for replicates (raw CTG signal): p53_construct Mut
[3] = test system: Calu-1 cells stably expressing Halo–p53 WT (FL)–mCherry–2A–mTagBFP2-V5; test: CellTiter-Glo cell viability; details: for mean_norm: Cell_Type WT; for replicates (raw CTG signal): p53_construct WT, CTG 4 days
Procedure, shortened: (§1)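 Cells were seeded at typically 1,500 per well together with a range of compound concentrations. CellTiter-Glo reagent was then added, mixed in, and the signal read on a plate reader as the viability measure.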

[4] = test system: PLK1 and p53-Y220C localization in cotransfected 293T cells; test: colocalization assay, live-cell imaging; details: nonmitotic cells
Method: The 293T cells were seeded in six-well plates and cotransfected with Halo–p53-Y220C ΔTAD–mCherry and mEGFP–PLK1–SmBiT (1:1). After 1 day, the cells were passaged into 96-well plates in FluoroBrite DMEM for microscopy. The cells were imaged with the Opera Phenix Plus high-content screening system (PerkinElmer) before compound treatment and as a time series following compound treatment.

[5] = test system: 293T cells stably expressing Halo–p53-Y220C ΔTAD–mCherry versus parental 293T cells; test: crystal violet staining; details: 5 days
Method: The 293T cells were plated in six-well or 12-well plates at low density (~10% confluence) and treated with compound for the indicated duration. Cells were rinsed once with PBS and then stained with crystal violet (0.5% m/v) in 20% methanol–water for 10 min. Cells were washed with water five times and air-dried overnight.

BxPC-3 cells = test: CellTiter-Glo cell viability; details: BXPC3; for mean_norm (normalized viability): 4 day
Procedure, shortened: as §1

[6] = test system: Halo–p53-Y220C ΔTAD–mCherry 293T cells; test: 3-week culture with compound, mCherry^− fraction by FACS; details: 250 nM, 3 weeks

Compound: CC[C@@H]1C(=O)N(C)c2cnc(Nc3ccc(C(=O)NC4CCN(C)CC4)cc3OC)nc2N1C1CCCC1 [BI2536]
- viability at 4 days ([1]; Compound_conc 0.0488281): 112%
- viability at 4 days ([1]; Compound_conc 0.0976562): 115%
- viability at 4 days ([1]; Compound_conc 0.195312): 107%
- viability at 4 days ([1]; Compound_conc 0.390625): 106%
- viability at 4 days ([1]; Compound_conc 0.78125): 119%
- viability at 4 days ([1]; Compound_conc 1.5625): 104%
- viability at 4 days ([1]; Compound_conc 3.125): 113%
- viability at 4 days ([1]; Compound_conc 6.25): 84.3%
- viability at 4 days ([1]; Compound_conc 12.5): 70.7%
- viability at 4 days ([1]; Compound_conc 25): 62%
- viability at 4 days ([1]; Compound_conc 50): 47.3%
- viability at 4 days ([1]; Compound_conc 100): 41.4%
- differential proliferation effect ([2]; Calu-1 p53 WT versus p53-R273H): lacked a differential proliferation effect
- replicates (raw CTG signal) ([2]; Compound_conc 0.0488281): 197890 and 183273 and 187583 and 162992
- replicates (raw CTG signal) ([2]; Compound_conc 0.0976562): 191053 and 161144 and 203266 and 199816
- replicates (raw CTG signal) ([2]; Compound_conc 0.195312): 176045 and 169600 and 186049 and 169525
- replicates (raw CTG signal) ([2]; Compound_conc 0.390625): 185229 and 162171 and 189977 and 157434
- replicates (raw CTG signal) ([2]; Compound_conc 0.78125): 218482 and 178554 and 204635 and 180452
- replicates (raw CTG signal) ([2]; Compound_conc 1.5625): 174155 and 148473 and 186714 and 171263
- replicates (raw CTG signal) ([2]; Compound_conc 3.125): 194944 and 176651 and 192942 and 172246
- replicates (raw CTG signal) ([2]; Compound_conc 6.25): 144484 and 119258 and 155344 and 132872
- replicates (raw CTG signal) ([2]; Compound_conc 12.5): 123471 and 113233 and 124855 and 101499
- replicates (raw CTG signal) ([2]; Compound_conc 25): 102356 and 92186 and 120326 and 90854
- replicates (raw CTG signal) ([2]; Compound_conc 50): 87813 and 79696 and 71081 and 71223
- replicates (raw CTG signal) ([2]; Compound_conc 100): 63459 and 73795 and 72267 and 61765
- mean_norm ([3]; Concentration 0.00976562): 0.9965
- mean_norm ([3]; Concentration 0.0195312): 0.9819
- mean_norm ([3]; Concentration 0.0390625): 0.9464
- mean_norm ([3]; Concentration 0.078125): 0.9231
- mean_norm ([3]; Concentration 0.15625): 0.8923
- mean_norm ([3]; Concentration 0.3125): 0.9222
- mean_norm ([3]; Concentration 0.625): 0.8706
- mean_norm ([3]; Concentration 1.25): 0.9152
- mean_norm ([3]; Concentration 2.5): 0.732
- mean_norm ([3]; Concentration 5): 0.654
- replicates (raw CTG signal) ([3]; Compound_conc 0.0488281): 244635 and 211925 and 234768 and 234225
- replicates (raw CTG signal) ([3]; Compound_conc 0.0976562): 273323 and 237458 and 247150 and 303994
- replicates (raw CTG signal) ([3]; Compound_conc 0.195312): 238397 and 225982 and 259666 and 218737
- replicates (raw CTG signal) ([3]; Compound_conc 0.390625): 236109 and 227126 and 240832 and 277749
- replicates (raw CTG signal) ([3]; Compound_conc 0.78125): 245303 and 237908 and 252002 and 245374
- replicates (raw CTG signal) ([3]; Compound_conc 1.5625): 272283 and 224772 and 244085 and 261410
- replicates (raw CTG signal) ([3]; Compound_conc 3.125): 243376 and 233836 and 240215 and 246677
- replicates (raw CTG signal) ([3]; Compound_conc 6.25): 186650 and 172938 and 193716 and 217878
- replicates (raw CTG signal) ([3]; Compound_conc 12.5): 153573 and 146180 and 148955 and 165621
- replicates (raw CTG signal) ([3]; Compound_conc 25): 156770 and 147371 and 141939 and 149390
- replicates (raw CTG signal) ([3]; Compound_conc 50): 121176 and 111722 and 112653 and 125709
- replicates (raw CTG signal) ([3]; Compound_conc 100): 91299 and 91521 and 110253 and 107241

Compound: CC[C@@H]1C(=O)N(C)c2cnc(Nc3ccc(C(=O)NCCOCCOCCOCCOCCC(=O)N4CCC(Nc5cccc6c5cc(C#CCNc5ccc(S(C)(=O)=O)cc5OC)n6CC(F)(F)F)CC4)cc3OC)nc2N1C1CCCC1 [p53-01, PMV6-PEG4-BI2536]
- protein localization [4]: PLK1 nuclear enrichment and colocalization with p53-Y220C
- crystal violet staining [5]: differential antiproliferative activity
- p5301_AUC_to_10uM (BxPC-3 cells): 0.6983
- mean_norm (normalized viability) (BxPC-3 cells; Concentration 625): 0.9363
- mean_norm (normalized viability) (BxPC-3 cells; Concentration 1250): 0.9354
- mean_norm (normalized viability) (BxPC-3 cells; Concentration 2500): 0.8133
- mean_norm (normalized viability) (BxPC-3 cells; Concentration 5000): 0.7027
- IC50 (BxPC-3 cells; Homo sapiens, BXPC-3, 96 h, 4 day treatment): 8.25 µM
- expansion of mCherry^− fraction [6]: 6.9 fold
